# According to US6447748B1, “Benzamide compounds for cancer imaging and therapy” (Research Corporation Technologies, Inc., priority 1993, dated 2002):
# Read-outs that look alike come from different tables or passages of the source.
# Key:
# [1] = for Biodistribution Blood / Biodistribution Bone / Biodistribution Brain / Biodistribution Gonads / Biodistribution Heart / Biodistribution Kidney / Biodistribution Liver / Biodistribution Lunq / Biodistribution Muscle / Biodistribution Spleen / Biodistribution Thyroid: Wistar male rats, average of four rats
# Procedure: Male Wistar rats (200-230g), while under anesthesia, were injected intravenously with 0.1 ml of a saline solution containing 20% ethanol solution of 4-[^125I]BP (4-5 μCi). At 1, 4, 6 and 24 hr. after injection, blood samples were collected by cardiac puncture and the […] were sacrificed immediately thereafter by cardiectomy while under anesthesia. The organs of interest were subsequently excised, blotted with tissue paper, weighed, and the radioactivity was counted using a Packard automatic counter (autogamma 5650). The % injected dose/g (% ID/g) values were determined by comparison of tissue radioactivities with suitably diluted aliquots of the injected 4-[^125I]BP dose divided by the weight of the organ.
# [2] = Biodistribution of 4-[125I]PEMP in Sprague Dawley rats; format: in vivo; conditions: for Biodistribution Blood / Biodistribution Bone / Biodistribution Brain / Biodistribution Heart / Biodistribution Kidney / Biodistribution Liver / Biodistribution Lung / Biodistribution Muscle / Biodistribution Spleen / Biodistribution Thyroid: average of four rats
# Procedure: Balb/c nu/nu mice (17-22 g) were injected intravenously with 0.2 ml of a saline solution containing [^125I]PAB (5-6 μCi). […] The values obtained were normalized to a mouse weighing 20 g.
# Biodistribution experiments were performed to assess the clearance of N-[(4-[^125I]-iodophenyl)ethyl]-N-methyl-2-(1-piperidinyl)-ethylamine, 4-[^125I]PEMP. The compound was prepared according to the procedure described in Example 16. For in vivo studies, Sprague Dawley rats were used. Animal biodistribution assays were performed according to the procedure described in Example 11.
# [3] = system: human melanoma xenograft tumors (A2058); test: Scintigraphic imaging of nude mice bearing human melanoma xenografts; format: in vivo, Balb/c nu/nu mice
# Procedure: A2058 cells, derived from a brain metastasis of human malignant melanoma (Todaro et al. 1980 Proc. Natl. Acad. Sci. USA 77: 5258) were obtained from the National Institutes of Health. A human lung adenocarcinoma cell line, NCI-838, was obtained from the National Cancer Institute. These cells were grown in DMEM2 medium (Dulbecco's modification of Eagle's medium, […]) supplemented with 10% fetal bovine serum and 0.03% L-glutamine.
# Balb/c nu/nu mice (17-22 g) bearing human melanoma or non-small cell lung carcinoma xenograft tumors were injected intravenously with 0.2 ml of saline solution containing [^131I]PAB or [^131I]DAB (150-200 μCi). The animals were anesthetized with ketamine containing rompun before the imaging studies. The images were obtained using a scintigraphic camera with a pin-hole collimator at 6 and 24 hr. post injection.
structure (smiles),measurement,setting,value
"O=C(NC1CCN(Cc2ccccc2)CC1)c1ccc([125I])cc1 [4-[^125I]BP, ^125I-(N-Benzylpiperidin-4-yl)-4-iodobenzamide]",Biodistribution Blood,[1]; 1 hr.,0.04 ± 0.00 % ID/g
same,Biodistribution Bone,[1]; 1 hr.,0.24 ± 0.01 % ID/g
same,Biodistribution Brain,[1]; 1 hr.,1.24 ± 0.13 % ID/g
same,Biodistribution Gonads,[1]; 1 hr.,0.39 ± 0.03 % ID/g
same,Biodistribution Heart,[1]; 1 hr.,0.75 ± 0.05 % ID/g
same,Biodistribution Kidney,[1]; 1 hr.,2.10 ± 0.15 % ID/g
same,Biodistribution Liver,[1]; 1 hr.,4.77 ± 0.13 % ID/g
same,Biodistribution Lunq,[1]; 1 hr.,5.05 ± 0.26 % ID/g
same,Biodistribution Muscle,[1]; 1 hr.,0.24 ± 0.02 % ID/g
same,Biodistribution Spleen,[1]; 1 hr.,1.60 ± 0.10 % ID/g
same,Biodistribution Thyroid,[1]; 1 hr.,0.07 ± 0.01 % ID/g
same,Biodistribution Blood,[1]; 4 hr.,0.02 ± 0.00 % ID/g
same,Biodistribution Bone,[1]; 4 hr.,0.24 ± 0.05 % ID/g
same,Biodistribution Brain,[1]; 4 hr.,1.29 ± 0.05 % ID/g
same,Biodistribution Gonads,[1]; 4 hr.,0.30 ± 0.02 % ID/g
same,Biodistribution Heart,[1]; 4 hr.,0.74 ± 0.04 % ID/g
same,Biodistribution Kidney,[1]; 4 hr.,2.05 ± 0.02 % ID/g
same,Biodistribution Liver,[1]; 4 hr.,7.76 ± 0.36 % ID/g
same,Biodistribution Lunq,[1]; 4 hr.,5.22 ± 0.78 % ID/g
same,Biodistribution Muscle,[1]; 4 hr.,0.20 ± 0.02 % ID/g
same,Biodistribution Spleen,[1]; 4 hr.,1.51 ± 0.19 % ID/g
same,Biodistribution Thyroid,[1]; 4 hr.,0.12 ± 0.00 % ID/g
same,Biodistribution Blood,[1]; 6 hr.,0.04 ± 0.00 % ID/g
same,Biodistribution Bone,[1]; 6 hr.,0.44 ± 0.03 % ID/g
same,Biodistribution Brain,[1]; 6 hr.,1.23 ± 0.08 % ID/g
same,Biodistribution Gonads,[1]; 6 hr.,0.34 ± 0.01 % ID/g
same,Biodistribution Heart,[1]; 6 hr.,0.75 ± 0.02 % ID/g
same,Biodistribution Kidney,[1]; 6 hr.,2.10 ± 0.08 % ID/g
same,Biodistribution Liver,[1]; 6 hr.,7.20 ± 0.40 % ID/g
same,Biodistribution Lunq,[1]; 6 hr.,4.85 ± 0.17 % ID/g
same,Biodistribution Muscle,[1]; 6 hr.,0.12 ± 0.02 % ID/g
same,Biodistribution Spleen,[1]; 6 hr.,1.57 ± 0.12 % ID/g
same,Biodistribution Thyroid,[1]; 6 hr.,0.23 ± 0.05 % ID/g
same,Biodistribution Blood,[1]; 24 hr.,0.02 ± 0.00 % ID/g
same,Biodistribution Bone,[1]; 24 hr.,0.47 ± 0.07 % ID/g
same,Biodistribution Brain,[1]; 24 hr.,1.24 ± 0.06 % ID/g
same,Biodistribution Gonads,[1]; 24 hr.,0.34 ± 0.01 % ID/g
same,Biodistribution Heart,[1]; 24 hr.,0.65 ± 0.03 % ID/g
same,Biodistribution Kidney,[1]; 24 hr.,1.54 ± 0.05 % ID/g
same,Biodistribution Liver,[1]; 24 hr.,5.37 ± 0.53 % ID/g
same,Biodistribution Lunq,[1]; 24 hr.,3.70 ± 0.38 % ID/g
same,Biodistribution Muscle,[1]; 24 hr.,0.12 ± 0.01 % ID/g
same,Biodistribution Spleen,[1]; 24 hr.,1.47 ± 0.28 % ID/g
same,Biodistribution Thyroid,[1]; 24 hr.,0.29 ± 0.04 % ID/g
same,clearance from the blood pool,[1]; Wistar rats,cleared quickly
same,crossing of the blood brain barrier,"[1]; Wistar rats, retained in the brain after 24 hours",crossed the blood brain barrier
same,in vivo dehalogenation (thyroid activity after 24 hours),"[1]; rat, in vivo",no in vivo dehalogenation
"CN(CCc1ccc([125I])cc1)CCN1CCCCC1 [4-[^125I]PEMP, N-[(4-[^125I]-iodophenyl)ethyl]-N-methyl-2-(1-piperidinyl)-ethylamine]",clearance,[2],"rapid clearance from the liver, lungs and kidneys"
same,Biodistribution Blood,[2]; 1 hr.,1.82 ± 0.20 % ID/whole organ
same,Biodistribution Bone,[2]; 1 hr.,0.23 ± 0.00 % ID/whole organ
same,Biodistribution Brain,[2]; 1 hr.,1.79 ± 0.21 % ID/whole organ
same,Biodistribution Heart,[2]; 1 hr.,0.30 ± 0.02 % ID/whole organ
same,Biodistribution Kidney,[2]; 1 hr.,4.57 ± 0.88 % ID/whole organ
same,Biodistribution Liver,[2]; 1 hr.,16.56 ± 2.19 % ID/whole organ
same,Biodistribution Lung,[2]; 1 hr.,4.91 ± 0.23 % ID/whole organ
same,Biodistribution Muscle,[2]; 1 hr.,15.60 ± 3.04 % ID/whole organ
same,Biodistribution Spleen,[2]; 1 hr.,2.52 ± 0.49 % ID/whole organ
same,Biodistribution Thyroid,[2]; 1 hr.,0.19 ± 0.02 % ID/whole organ
same,Biodistribution Blood,[2]; 6 hr.,2.59 ± 0.32 % ID/whole organ
same,Biodistribution Bone,[2]; 6 hr.,0.28 ± 0.01 % ID/whole organ
same,Biodistribution Brain,[2]; 6 hr.,0.57 ± 0.01 % ID/whole organ
same,Biodistribution Heart,[2]; 6 hr.,0.18 ± 0.00 % ID/whole organ
same,Biodistribution Kidney,[2]; 6 hr.,1.45 ± 0.03 % ID/whole organ
same,Biodistribution Liver,[2]; 6 hr.,6.39 ± 0.48 % ID/whole organ
same,Biodistribution Lung,[2]; 6 hr.,1.22 ± 0.12 % ID/whole organ
same,Biodistribution Muscle,[2]; 6 hr.,11.73 ± 0.63 % ID/whole organ
same,Biodistribution Spleen,[2]; 6 hr.,0.96 ± 0.10 % ID/whole organ
same,Biodistribution Thyroid,[2]; 6 hr.,0.20 ± 0.05 % ID/whole organ
same,Biodistribution Blood,[2]; 24 hr.,1.01 ± 0.12 % ID/whole organ
same,Biodistribution Bone,[2]; 24 hr.,0.17 ± 0.00 % ID/whole organ
same,Biodistribution Brain,[2]; 24 hr.,0.23 ± 0.00 % ID/whole organ
same,Biodistribution Heart,[2]; 24 hr.,0.05 ± 0.00 % ID/whole organ
same,Biodistribution Kidney,[2]; 24 hr.,0.50 ± 0.02 % ID/whole organ
same,Biodistribution Liver,[2]; 24 hr.,1.83 ± 0.16 % ID/whole organ
same,Biodistribution Lung,[2]; 24 hr.,0.34 ± 0.03 % ID/whole organ
same,Biodistribution Muscle,[2]; 24 hr.,5.55 ± 1.25 % ID/whole organ
same,Biodistribution Spleen,[2]; 24 hr.,0.28 ± 0.03 % ID/whole organ
same,Biodistribution Thyroid,[2]; 24 hr.,0.58 ± 0.03 % ID/whole organ
"CCN(CC)CCNC(=O)c1ccc([131I])cc1 [[^131I]DAB, ^131I-N-(diethylaminoethyl)4-iodobenzamide, reference compound]","detection in the tumor, scintigraphic image",[3]; 6 and 24 hrs. post injection,no [^131I]DAB was detected in the tumor
same,"uptake in the liver, scintigraphic image",[3]; 6 and 24 hrs. post-administration,considerable uptake
